Data taken from patent publication US10947196B2, “Beta adrenergic agonist and methods of using the same” (CURASEN THERAPEUTICS, INC., priority 2019, dated 2021).
Where two headings read alike, the source gives them in different places.

Key:
Format in all cases: cell-based
β1-adrenergic receptor = β1-adrenergic receptor (Homo sapiens (Human), UniProt P08588); test: cAMP Gs dynamic HTRF assay, β1 expressing CHO cells; details: B1-AR
In short: (§1)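 Intracellular cAMP quantified by Eu-donor/d2-acceptor HTRF after 30 min compound exposure at 37° C in stimulation buffer with IBMX. Concentrations ran 10 μM top, 5-fold steps, 10 points. Cell lines: 1321N1 astrocytoma and CHO expressing β1 or β2; EC50 via four-parameter fit, relative efficacy against isoproterenol.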

β2 adrenergic receptor = β2 adrenergic receptor (Homo sapiens (Human), UniProt P07550); test: cAMP Gs dynamic HTRF assay, β2 expressing CHO cells; details: B2-AR
β2 adrenergic receptor, sequence (P07550 whole entry, species assumed): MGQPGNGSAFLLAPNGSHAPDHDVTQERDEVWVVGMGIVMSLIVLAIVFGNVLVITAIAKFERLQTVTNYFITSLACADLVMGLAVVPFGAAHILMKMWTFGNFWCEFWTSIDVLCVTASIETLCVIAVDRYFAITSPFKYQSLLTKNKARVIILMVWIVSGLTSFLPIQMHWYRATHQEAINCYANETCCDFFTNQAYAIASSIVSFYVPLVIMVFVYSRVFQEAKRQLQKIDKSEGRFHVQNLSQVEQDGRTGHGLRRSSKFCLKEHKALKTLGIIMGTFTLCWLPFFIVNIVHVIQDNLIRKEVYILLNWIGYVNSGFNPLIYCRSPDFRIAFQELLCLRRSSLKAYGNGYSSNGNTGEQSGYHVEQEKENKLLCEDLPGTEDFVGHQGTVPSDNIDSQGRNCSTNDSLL
In short: as §1

[1] = biological target: β2 adrenergic receptors in human astrocytoma cells (1321N1) (Homo sapiens (Human), UniProt P07550); test: cAMP HTRF assay in human astrocytoma cells (1321N1); details: Endogenous receptor, 1321N1 cells
β2 adrenergic receptors in human astrocytoma cells (1321N1), sequence (P07550 whole entry): as the sequence (P07550 whole entry, species assumed) above
Method: cAMP homogeneous time-resolved fluorescence (HTRF). Compound efficacy was determined using the cAMP Gs dynamic HTRF assay (Cisbio, catalog #62AM4PEC) largely following the manufacturer's instructions, also detailed below.
Compound preparation. […] Standard serial dilution curves were 10-point, 5-fold dilutions starting from a highest concentration of 10 μM. […] Assay plates were centrifuged at 500×g for 10 seconds. Compounds and IBMX were prepared at 2× final dose to compensate for addition of cells.
Cell preparation. 1× stimulation buffer, washing PBS (Dulbecco's phosphate-buffered saline, −Mg −Ca; Caisson Labs, catalog #PBL01), assay PBS (Dulbecco's phosphate-buffered saline, +Mg, +Ca; Caisson Labs, catalog #PBL02) and Versene (0.02% EDTA disodium salt solution in PBS without calcium or magnesium; Caisson Labs, catalog #EDL01) were pre-warmed to 37° C. Cells expressing beta-adrenergic receptor were washed in washing PBS to remove growth medium and then released from the surface by incubating with Versene for 5-10 minutes at 37° C. Cells were harvested using assay PBS, counted manually by hemocytometer or by an automated cell counter, pelleted by centrifugation (200×g, 5 minutes) and resuspended in 37° C. 1× stimulation buffer to a final density of 1.5×10^6 cells/mL. 5 μL of the suspended cell solution (7500 cell total) were added to all wells of the 384 well assay plate, the assay plate was covered with an Axygen® plate seal (Corning PCR-SP) and incubated in a humidified 37° C. environment supplemented with 5% CO2 for 30 minutes.
HTRF reagent addition, reading and data analysis. After 30 minutes of cell stimulation with test compound, the assay plates were centrifuged at 500×g for 10 seconds, and incubation was stopped with the addition of 5 μL cAMP-D2 acceptor, diluted 1:21 in detection and lysis buffer 2 (Cisbio 62CL2FDF) was added to all cells. Subsequently, 5 μL Anti-cAMP-Eu Donor, diluted 1:21 in detection and lysis buffer 2, was added to cells. Plates were sealed and reactions gently ‘vortexed’ at 900 rpm on a Heidolph Titramax 1000 for at least 30 minutes at room temperature. Plates were centrifuged again at 500×g for 10 seconds, and HTRF was measured using a Tecan Spark plate reader at 50 flashes per well. […] Potency estimates (EC50) were derived from the four-parameter nonlinear regression of the concentration-effect curve and an estimate of relative efficacy was determined by comparing the magnitude of the test compound HTRF signal window (min−max dose) with the signal window of the full agonist control, isoproterenol.

B3-AR = B3-AR (Homo sapiens (Human), UniProt P13945); test: cAMP potency assay, B3-AR expressing CHO-K1 cells
B3-AR, sequence (P13945 whole entry, species assumed): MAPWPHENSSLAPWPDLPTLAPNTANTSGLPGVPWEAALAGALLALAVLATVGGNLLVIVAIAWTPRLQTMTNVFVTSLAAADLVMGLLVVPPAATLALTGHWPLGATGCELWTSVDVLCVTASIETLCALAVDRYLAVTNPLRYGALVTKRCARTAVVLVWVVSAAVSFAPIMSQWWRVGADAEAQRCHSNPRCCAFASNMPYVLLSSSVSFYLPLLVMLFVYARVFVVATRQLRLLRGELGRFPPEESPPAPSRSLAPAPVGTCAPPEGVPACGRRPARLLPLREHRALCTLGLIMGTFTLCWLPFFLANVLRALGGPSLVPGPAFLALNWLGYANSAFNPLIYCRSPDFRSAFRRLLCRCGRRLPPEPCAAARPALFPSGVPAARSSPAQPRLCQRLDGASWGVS

[2] = CHO-K cells, read-out: Average EC50 [Receptor subtype: B1-AR, Cell type: CHO-K]
[3] = CHO-K1 (HitHunter), read-out: Average pEC50 [Receptor subtype: B2-AR, Cell type: CHO-K1 (HitHunter)] (converted)
[4] = CHO-K cells, read-out: Average EC50 [Receptor subtype: B2-AR, Cell type: CHO-K]
[5] = read-out: Average EC50 [Receptor subtype: Endogenous, Cell type: 1321N1]
[6] = read-out: Average EC50 [Receptor subtype: B3-AR, Cell type: CHO-K1]
[7] = read-out: Average pEC50 [Receptor subtype: B3-AR, Cell type: CHO-K1] (converted)
[8] = CHO-K1 (HitHunter), read-out: Average pEC50 [Receptor subtype: B1-AR, Cell type: CHO-K1 (HitHunter)] (converted)
[9] = read-out: Average pEC50 [Receptor subtype: Endogenous, Cell type: 1321N1] (converted)

β1-adrenergic receptor, sequence (P08588 whole entry, species assumed): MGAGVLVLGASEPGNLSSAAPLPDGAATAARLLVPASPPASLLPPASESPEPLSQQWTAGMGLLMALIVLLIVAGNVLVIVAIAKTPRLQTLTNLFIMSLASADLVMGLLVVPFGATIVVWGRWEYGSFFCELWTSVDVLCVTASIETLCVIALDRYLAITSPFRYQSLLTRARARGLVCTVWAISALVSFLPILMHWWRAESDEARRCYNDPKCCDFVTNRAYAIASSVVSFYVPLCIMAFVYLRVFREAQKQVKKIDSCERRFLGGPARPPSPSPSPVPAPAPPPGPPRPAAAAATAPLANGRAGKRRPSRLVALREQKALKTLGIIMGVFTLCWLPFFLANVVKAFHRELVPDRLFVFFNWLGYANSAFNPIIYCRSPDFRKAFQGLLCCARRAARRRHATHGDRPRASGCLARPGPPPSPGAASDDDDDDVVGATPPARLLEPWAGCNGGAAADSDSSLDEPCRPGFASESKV

Compound	Average pEC50 [Receptor subtype: B1-AR; Cell type: CHO-K1 (HitHunter)] (β1-adrenergic receptor; CHO-K1 (HitHunter))	EC50 (β1-adrenergic receptor; [2])	EC50 (β2 adrenergic receptor; [3])	EC50 (β2 adrenergic receptor; [4])	Average pEC50 [Receptor subtype: Endogenous; Cell type: 1321N1] [1]	EC50 [1, 5]	EC50 (B3-AR; [6])	EC50 (B3-AR; [7])	EC50 (β1-adrenergic receptor; [8])	Average pEC50 [Receptor subtype: B3-AR; Cell type: CHO-K1] (B3-AR)	EC50 [1, 9]
CC(C)(C)NC[C@H](O)c1cccnc1C1CCCC1 [Compound 03-53]	D (D < 6)	> 1000 nM	10 to 100 nM	10 to 100 nM	C (C = <7-6)	100 to 1000 nM	> 1000 nM	> 1000 nM	–	–	–
CC(C)Oc1ncccc1[C@@H](O)CNC(C)(C)C [Compound 03-57]	C (C = <7-6)	100 to 1000 nM	10 to 100 nM	10 to 100 nM	C (C = <7-6)	100 to 1000 nM	> 1000 nM	> 1000 nM	–	–	–
CCOc1ncccc1[C@@H](O)CNC(C)(C)C [Compound 03-58]	–	10 to 100 nM	10 to 100 nM	10 to 100 nM	B (B = 8-7)	10 to 100 nM	> 1000 nM	–	10 to 100 nM	D (D < 6)	–
COc1ncccc1[C@@H](O)CNC(C)(C)C [Compound 03-59]	–	< 10 nM	< 10 nM	< 10 nM	A (A > 8)	< 10 nM	100 to 1000 nM	–	< 10 nM	C (C = <7-6)	–
CC(C)(C)NC[C@H](O)c1ccc(C(F)(F)F)cn1 [Compound 03-126]	–	10 to 100 nM	10 to 100 nM	10 to 100 nM	–	–	–	100 to 1000 nM	10 to 100 nM	–	10 to 100 nM
Cc1ccc([C@@H](O)CNC(C)(C)C)nc1 [Compound 03-127]	–	10 to 100 nM	10 to 100 nM	10 to 100 nM	–	–	–	> 1000 nM	10 to 100 nM	–	10 to 100 nM
CNc1cccc([C@@H](O)CNC(C)(C)C)n1 [Compound 03-141]	–	100 to 1000 nM	< 10 nM	< 10 nM	–	–	–	> 1000 nM	10 to 100 nM	–	10 to 100 nM
CC(C)(C)NC[C@H](O)c1cccc(C2CCC2)n1 [Compound 03-161]	A (A > 8)	< 10 nM	< 10 nM	< 10 nM	–	–	–	100 to 1000 nM	–	–	< 10 nM
Cc1ccc([C@@H](O)CNC(C)(C)C)nc1C(F)(F)F [Compound 03-167]	–	< 10 nM	< 10 nM	< 10 nM	–	–	–	> 1000 nM	< 10 nM	–	< 10 nM
Cc1ccc([C@H](O)CNC(C)(C)C)nc1C(F)(F)F [Compound 03-168]	–	10 to 100 nM	10 to 100 nM	10 to 100 nM	–	–	–	100 to 1000 nM	10 to 100 nM	–	100 to 1000 nM
CC(C)(C)NC[C@H](O)c1cccc(C(C)(F)F)n1 [Compound 03-169]	B (B = 8-7)	10 to 100 nM	< 10 nM	< 10 nM	–	–	–	> 1000 nM	–	–	100 to 1000 nM
CC(C)(C)NC[C@H](O)c1cccc(N2CCCC2)n1 [Compound 03-173]	–	100 to 1000 nM	< 10 nM	< 10 nM	–	–	–	> 1000 nM	100 to 1000 nM	–	< 10 nM
CC(C)c1cccc([C@@H](O)CNC(C)(C)C)n1 [Compound 03-175]	–	10 to 100 nM	< 10 nM	< 10 nM	–	–	–	> 1000 nM	10 to 100 nM	–	< 10 nM
CCOc1cccc([C@@H](O)CNC(C)(C)C)n1 [Compound 03-177]	–	10 to 100 nM	< 10 nM	< 10 nM	–	–	–	100 to 1000 nM	10 to 100 nM	–	< 10 nM
CC(C)Oc1cccc([C@@H](O)CNC(C)(C)C)n1 [Compound 03-179]	C (C = <7-6)	100 to 1000 nM	< 10 nM	< 10 nM	–	–	–	100 to 1000 nM	–	–	< 10 nM
COc1ccc(CC(C)(C)NC[C@H](O)c2cccc(C(F)(F)F)n2)cc1 [Compound 03-182]	–	10 to 100 nM	< 10 nM	< 10 nM	–	–	–	100 to 1000 nM	10 to 100 nM	–	< 10 nM
CC(C)(COc1ccccc1)NC[C@H](O)c1cccc(C(F)(F)F)n1 [Compound 03-184]	B (B = 8-7)	10 to 100 nM	10 to 100 nM	10 to 100 nM	–	–	–	100 to 1000 nM	–	–	10 to 100 nM
CC(C)(C)NCC(O)c1cncc(Cl)n1 (stereo not drawn) [Compound 03-219]	–	–	100 to 1000 nM	–	–	–	–	100 to 1000 nM	100 to 1000 nM	–	> 1000 nM
